Data taken from patent US20090275070A1, “Compounds and Methods of Identifying, Synthesizing, Optimizing and Profiling Protein Modulators” (priority 2005, published 2009).

Tests used:
[1] = tested on: wild type non-transformed Ba/F3 cells; test: phenoresponse-based cellular assay, wild type Ba/F3 control cells; parameters: species or system murine; conditions: Mus musculus; concentration inhibiting growth of the cell line by 50% in the cellular assay; wt BaF3 control cells; read-out: wt BaF3 (IC50 activity category)
[2] = molecular target: T1, Ba/F3 cells expressing p210Bcr-Abl-T315I (Homo sapiens, UniProt P00519, T315I, cells depend on it); test: phenoresponse-based cellular assay (cell count and viability), Ba/F3 T315I test cells; parameters: species or system murine; conditions: concentration inhibiting growth of the cell line by 50% in the cellular assay, read-out: T315I (IC50 activity category);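 further: cells counted by automated microcell imaging, viability scored by trypan blue exclusion, phenoresponse judged against parental Ba/F3 and Ba/F3 carrying wild-type p210Bcr-Abl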
T1 construct: fused on or other part: P11274 (Breakpoint cluster region protein)

SMILES | IC50 [1] [nM] | GI50 [2] [nM]
Oc1c(Cl)cc(Br)cc1/C=N/Nc1ncc(F)c(N2CCOCC2)n1 | < 1000 | < 300
Oc1ccccc1/C=N/Nc1ncc(F)c(N2CCOCC2)n1 | < 10000 | < 10000
Fc1cnc(N/N=C/c2ccccn2)nc1N1CCOCC1 | < 1000 | < 1000
Oc1ccc(Br)cc1/C=N/Nc1ncc(F)c(N2CCOCC2)n1 | < 1000 | < 1000
Cc1ccccc1/C=N/Nc1ncc(F)c(N2CCOCC2)n1 | ≥ 10000 | > 10000
Cc1ccc(/C=N/Nc2ncc(F)c(N3CCOCC3)n2)cc1 | ≥ 10000 | > 10000
Fc1cnc(N/N=C/c2ccccc2)nc1N1CCOCC1 | ≥ 10000 | > 10000
Oc1c(Cl)cc(-c2cccc(C(F)(F)F)c2)cc1/C=N/Nc1ncc(F)c(N2CCOCC2)n1 | < 1000 | < 300
O=C(Nc1cccc(C(F)(F)F)c1)c1cc(Cl)c(O)c(/C=N\Nc2ncc(F)c(N3CCOCC3)n2)c1 | < 1000 | < 1000
O=C(Nc1cccc(C(F)(F)F)c1)c1cccc(/C=N/Nc2ncc(F)c(N3CCOCC3)n2)n1 | ≥ 10000 | > 10000
O=C(Nc1cccc(C(F)(F)F)c1)c1ccc(/C=N/Nc2ncc(F)c(N3CCOCC3)n2)nc1 | < 10000 | < 1000
Fc1cnc(N/N=C/c2ccc(-c3cccc(C(F)(F)F)c3)cn2)nc1N1CCOCC1 | < 1000 | < 1000
O=C(C/C=N/Nc1ncc(F)c(N2CCOCC2)n1)Nc1cccc(C(F)(F)F)c1 | ≥ 10000 | > 10000
Fc1cnc(N/N=C/c2ccc(Nc3cccc(C(F)(F)F)c3)cn2)nc1N1CCOCC1 | < 300 | < 300
Cc1cccc(Cl)c1NC(=O)C/C=N/Nc1ncc(F)c(N2CCOCC2)n1 | ≥ 10000 | > 10000
Oc1ccc(-c2ccc(Nc3ccc(/C=N/Nc4ncc(F)c(N5CCOCC5)n4)nc3)cc2C(F)(F)F)cc1 | < 300 | < 300
Oc1cccc(-c2ccc(Nc3ccc(/C=N/Nc4ncc(F)c(N5CCOCC5)n4)nc3)cc2)c1 | < 300 | < 300
Fc1cnc(N/N=C/c2ccc(Nc3ccc(N4CCOCC4)cc3)cn2)nc1N1CCOCC1 | < 1000 | < 1000

SMILES | IC50 [1] [nM] | GI50 [2] [nM]
Fc1cnc(N/N=C/c2ccc(Nc3ccc(-c4cccnc4)cc3)cn2)nc1N1CCOCC1 | < 1000 | < 300
Cc1cccc(Cl)c1-c1ccc(Nc2ccc(/C=N/Nc3ncc(F)c(N4CCOCC4)n3)nc2)cc1 | < 300 | < 300
Fc1cnc(N/N=C/c2ccc(Nc3ccc(-c4ccccn4)c(Cl)c3)cn2)nc1N1CCOCC1 | < 1000 | < 1000
CC(C(=O)O)c1ccc(Nc2ccc(/C=N/Nc3ncc(F)c(N4CCOCC4)n3)nc2)cc1 (stereo not drawn) | ≥ 10000 | > 10000
Oc1cccc(-c2cccc(Nc3ccc(/C=N/Nc4ncc(F)c(N5CCOCC5)n4)nc3)c2)c1 | < 1000 | < 300
Fc1cnc(N/N=C/c2ccc(Nc3cccc(-n4ccnc4)c3)cn2)nc1N1CCOCC1 | < 1000 | < 1000
Cc1cc(Nc2ccc(/C=N/Nc3ncc(F)c(N4CCOCC4)n3)nc2)cc(N2CCNCC2)c1 | < 10000 | < 1000
O=C(NNc1ncc(F)c(N2CCOCC2)n1)c1ccc(Nc2cccc(C(F)(F)F)c2)cn1 | < 1000 | < 1000
Cc1cc(Nc2cccc(C(F)(F)F)c2)ccc1/C=N/Nc1ncc(F)c(N2CCOCC2)n1 | ≥ 10000 | > 10000
CN(C)c1cc(O)cc(Nc2ccc(/C=N/Nc3ncc(F)c(N4CCOCC4)n3)nc2)c1 | < 10000 | < 1000
Fc1cnc(N/N=C/c2ccc(Nc3cccc(C(F)(F)F)c3)cn2)nc1NCc1ccccc1 | < 300 | < 300
Fc1cnc(N/N=C/c2ccc(Nc3cccc(C(F)(F)F)c3)cn2)nc1NCC1CC1 | < 300 | < 300
Fc1cnc(N/N=C/c2ccc(Nc3cccc(C(F)(F)F)c3)cn2)nc1NCCN1CCOCC1 | < 300 | < 300
CN(/N=C/c1ccc(Nc2cccc(C(F)(F)F)c2)cn1)c1ncc(F)c(N2CCOCC2)n1 | < 300 | < 300
C/C(=N\Nc1ncc(F)c(N2CCOCC2)n1)c1ccc(Nc2cccc(C(F)(F)F)c2)cn1 | < 300 | < 300
Fc1cnc(N/N=C/c2ccc(Nc3cccc(C(F)(F)F)c3)cn2)nc1-c1cncc(-c2ccccc2)c1 | < 1000 | < 1000
Fc1cnc(N/N=C/c2ccc(Nc3cccc(C(F)(F)F)c3)cn2)nc1-c1cncc(C2CC2)c1 | < 10000 | < 10000
Oc1cccc(Nc2cccc(Nc3ccc(/C=N/Nc4ncc(F)c(N5CCOCC5)n4)nc3)c2)c1 | < 1000 | < 1000
